Experimental data as given in patent publication US11377442B2, “Small molecule agonists and antagonists of NR2F6 activity” (ZANDER THERAPEUTICS, INC., priority 2016, dated 2022).
“And” between values parts separate entries of the source, which are not always exact repeats. Equal entries are not always repeated. Where two headings read alike, the source gives them in different places.

Assays:
Format in all cases: cell-based
NR2F6 = target: T1, NR2F6 (Homo sapiens, UniProt P10588); experiment: NR2F6 agonist screening, Firefly signal cmpd/DMSO
T1 construct: expressed in transfected cells; also transient transfection
T1 sequence (P10588 1-404): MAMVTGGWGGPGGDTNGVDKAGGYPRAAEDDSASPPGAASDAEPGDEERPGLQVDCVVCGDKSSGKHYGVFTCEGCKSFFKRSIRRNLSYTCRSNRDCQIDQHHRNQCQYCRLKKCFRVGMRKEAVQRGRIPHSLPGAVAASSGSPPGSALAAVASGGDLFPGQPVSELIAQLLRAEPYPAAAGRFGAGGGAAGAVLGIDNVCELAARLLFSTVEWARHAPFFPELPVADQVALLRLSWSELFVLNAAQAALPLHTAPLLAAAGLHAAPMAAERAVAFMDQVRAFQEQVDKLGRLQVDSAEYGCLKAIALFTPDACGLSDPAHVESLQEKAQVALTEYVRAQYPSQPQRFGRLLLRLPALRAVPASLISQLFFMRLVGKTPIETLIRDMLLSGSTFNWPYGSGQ

Renilla [1] = experiment: Renilla signal in NR2F6 agonist screening, cmpd/DMSO; conditions: Renilla
HEK293 pGL4 = experiment: Firefly_pGL signal, cmpd/DMSO (pGL4 control cells); conditions: Homo sapiens
NR2F6 LBD = target: T2, NR2F6 LBD (Homo sapiens, UniProt P10588); experiment: NR2F6 LBD transient transfection
T2 construct: expressed in transfected cells
T2 sequence (P10588 165-393 limits assumed): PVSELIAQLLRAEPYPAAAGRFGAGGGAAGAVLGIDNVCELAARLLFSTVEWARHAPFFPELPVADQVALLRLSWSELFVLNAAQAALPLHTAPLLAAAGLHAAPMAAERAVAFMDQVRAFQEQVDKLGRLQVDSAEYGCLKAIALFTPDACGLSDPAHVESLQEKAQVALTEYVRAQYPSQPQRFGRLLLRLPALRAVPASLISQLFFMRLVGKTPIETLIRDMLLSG
Summary of the method: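 LBD-transfected cells treated at 40, 10, 2 and 0.5 μM (4 replicates); cytotoxicity measured in parallel, normalized to DMSO (0%) and zero signal (100%). Higher concentrations excluded where signal loss reflected toxicity.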

Renilla [2] = experiment: Renilla signal, LBD, cmpd/DMSO (NR2F6 LBD transfected cells)
[3] = read-out: Renilla F4, cmpd/DMSO (mean)
[4] = F4, read-out: Renilla, F4, cmpd/DMSO (mean)
[5] = F4, 1% FBS, read-out: Renilla, F4, 1% FBS, cmpd/DMSO (mean)
[6] = F4, 10% FBS, read-out: Renilla, F4, 10% FBS, cmpd/DMSO (mean)

- Firefly F4, cmpd/DMSO (mean) (NR2F6; 0.5 uM): 1.3
- Firefly F4, cmpd/DMSO (mean) (NR2F6; 0.5 uM, F4): 1.4
- Firefly F4, cmpd/DMSO (mean) (NR2F6; 2 uM): 1.4
- Firefly F4, cmpd/DMSO (mean) (NR2F6; 2 uM, F4): 1.9
- Firefly F4, cmpd/DMSO (mean) (NR2F6; 10 uM): 4.3
- Firefly F4, cmpd/DMSO (mean) (NR2F6; 10 uM, F4): 4.1
- Firefly F4, cmpd/DMSO (mean) (NR2F6; 40 uM): 0.9
- Firefly F4, cmpd/DMSO (mean) (NR2F6; 40 uM, F4): 2.3
- F4, Firefly/Renilla for S/B(F4) > 3 (NR2F6; 1% FBS, 10 uM): 2.7 and 2.1
- F4, Firefly/Renilla for S/B(F4) > 3 (NR2F6; 10% FBS, 10 uM): 2.2
- Firefly, F4/pGL4 for S/B(F4) > 3 (NR2F6; 10% FBS, 10 uM): 2.2
- F4, Firefly/Renilla for S/B(F4) > 3 (NR2F6; 10% FBS, 40 uM): 1.4 and 2.5
- Firefly, F4/pGL4 for S/B(F4) > 3 (NR2F6; 10% FBS, 40 uM): 2.3 and 2.1
- Firefly, F4, 1% FBS, cmpd/DMSO (mean) (NR2F6; F4, 1% FBS, 0.5 uM): 0.8 and 0.9
- Firefly, F4, 1% FBS, cmpd/DMSO (mean) (NR2F6; F4, 1% FBS, 2 uM): 1.5 and 0.9
- Firefly, F4, 1% FBS, cmpd/DMSO (mean) (NR2F6; F4, 1% FBS, 10 uM): 5.4 and 3.6
- Firefly, F4, 1% FBS, cmpd/DMSO (mean) (NR2F6; F4, 1% FBS, 40 uM): 0.8 and 0.7
- Firefly, F4, 10% FBS, cmpd/DMSO (mean) (NR2F6; F4, 10% FBS, 2 uM): 1.1
- Firefly, F4, 10% FBS, cmpd/DMSO (mean) (NR2F6; F4, 10% FBS, 10 uM): 4.1 and 2.3
- Firefly, F4, 10% FBS, cmpd/DMSO (mean) (NR2F6; F4, 10% FBS, 40 uM): 4.2 and 6.2
- Firefly LBD, cmpd/DMSO (mean) (NR2F6 LBD; 0.5 uM): 0.8
- Firefly LBD, cmpd/DMSO (mean) (NR2F6 LBD; 0.5 uM, LBD): 1.3
- Firefly LBD, cmpd/DMSO (mean) (NR2F6 LBD; 2 uM): 1.7
- Firefly LBD, cmpd/DMSO (mean) (NR2F6 LBD; 2 uM, LBD): 2.0
- Firefly LBD, cmpd/DMSO (mean) (NR2F6 LBD; 10 uM): 4.3
- Firefly LBD, cmpd/DMSO (mean) (NR2F6 LBD; 10 uM, LBD): 3.6
- Firefly LBD, cmpd/DMSO (mean) (NR2F6 LBD; 40 uM): 0.5
- Firefly LBD, cmpd/DMSO (mean) (NR2F6 LBD; 40 uM, LBD): 0.7
Structure (SMILES): CC(C)CCN[C@H]1CS(=O)(=O)C[C@@H]1S(=O)(=O)c1ccc(Cl)cc1 [Compound D131]
- fold induction at 0.5 µM (Renilla [1]; [3]): 1
- fold induction at 2 µM (Renilla [1]; [3]): 1
- fold induction at 10 µM (Renilla [1]; [3]): 1.9
- fold induction at 40 µM (Renilla [1]; [3]): 0.3
- fold induction at 0.5 µM (Renilla [1]; [4]): 1.1
- fold induction at 2 µM (Renilla [1]; [4]): 1.2
- fold induction at 10 µM (Renilla [1]; [4]): 1.6
- fold induction at 40 µM (Renilla [1]; [4]): 1.8
- fold induction at 0.5 µM (Renilla [1]; [5]): 1
- fold induction at 2 µM (Renilla [1]; [5]): 1.3
- fold induction at 10 µM (Renilla [1]; [5]): 2
- fold induction at 40 µM (Renilla [1]; [5]): 2
- fold induction at 0.5 µM (Renilla [1]; [6]): 1
- fold induction at 2 µM (Renilla [1]; [6]): 1.1
- fold induction at 10 µM (Renilla [1]; [6]): 1.8
- fold induction at 40 µM (Renilla [1]; [6]): 3
- fold induction at 0.5 µM (HEK293 pGL4; HEK293, 0.5 uM, pGL4, read-out: Firefly pGL4, cmpd/DMSO (mean)): 1.1
- fold induction at 0.5 µM (HEK293 pGL4; HEK293, 0.5 uM, read-out: Firefly pGL4, cmpd/DMSO (mean)): 1
- fold induction at 2 µM (HEK293 pGL4; HEK293, 2 uM, pGL4, read-out: Firefly pGL4, cmpd/DMSO (mean)): 1.5
- fold induction at 2 µM (HEK293 pGL4; HEK293, 2 uM, read-out: Firefly pGL4, cmpd/DMSO (mean)): 1.3
- fold induction at 10 µM (HEK293 pGL4; HEK293, 10 uM, pGL4, read-out: Firefly pGL4, cmpd/DMSO (mean)): 2.7
- fold induction at 10 µM (HEK293 pGL4; HEK293, 10 uM, read-out: Firefly pGL4, cmpd/DMSO (mean)): 2.3
- fold induction at 40 µM (HEK293 pGL4; HEK293, 40 uM, pGL4, read-out: Firefly pGL4, cmpd/DMSO (mean)): 0.5
- fold induction at 40 µM (HEK293 pGL4; HEK293, 40 uM, read-out: Firefly pGL4, cmpd/DMSO (mean)): 1
- fold induction at 0.5 µM (HEK293 pGL4; HEK293, pGL4, 1% FBS, 0.5 uM, read-out: Firefly, pGL4, 1% FBS, cmpd/DMSO (mean)): 1
- fold induction at 2 µM (HEK293 pGL4; HEK293, pGL4, 1% FBS, 2 uM, read-out: Firefly, pGL4, 1% FBS, cmpd/DMSO (mean)): 1.1
- fold induction at 10 µM (HEK293 pGL4; HEK293, pGL4, 1% FBS, 10 uM, read-out: Firefly, pGL4, 1% FBS, cmpd/DMSO (mean)): 1.7
- fold induction at 40 µM (HEK293 pGL4; HEK293, pGL4, 1% FBS, 40 uM, read-out: Firefly, pGL4, 1% FBS, cmpd/DMSO (mean)): 0.9
- fold induction at 0.5 µM (HEK293 pGL4; HEK293, pGL4, 10% FBS, 0.5 uM, read-out: Firefly, pGL4, 10% FBS, cmpd/DMSO (mean)): 1
- fold induction at 2 µM (HEK293 pGL4; HEK293, pGL4, 10% FBS, 2 uM, read-out: Firefly, pGL4, 10% FBS, cmpd/DMSO (mean)): 1.2
- fold induction at 10 µM (HEK293 pGL4; HEK293, pGL4, 10% FBS, 10 uM, read-out: Firefly, pGL4, 10% FBS, cmpd/DMSO (mean)): 1.9
- fold induction at 40 µM (HEK293 pGL4; HEK293, pGL4, 10% FBS, 40 uM, read-out: Firefly, pGL4, 10% FBS, cmpd/DMSO (mean)): 1.8
- Renilla LBD, cmpd/DMSO (mean) (Renilla [2]; 0.5 uM): 1.1
- Renilla LBD, cmpd/DMSO (mean) (Renilla [2]; 2 uM): 1.1
- Renilla LBD, cmpd/DMSO (mean) (Renilla [2]; 10 uM): 0.8
- Renilla LBD, cmpd/DMSO (mean) (Renilla [2]; 40 uM): 0.2
